The text below walks through data of patent publication US12312370B2, “Immunoproteasome inhibitors” (Principia Biopharma Inc., priority 2017, dated 2025).

Some results are limits rather than exact numbers.

Usually IC50 stands for the point on the concentration scale where inhibition reaches its midpoint.

Experiment [1] has as its target immunoproteasome LMP7/B5i subunit (Homo sapiens, UniProt P28062). In words: Caliper-based proteasome enzymatic activity assay, LMP7. The experiment is classed as biochemical. The following applies: human recombinant immunoproteasome 0.3 nM, FAM-labeled peptide substrate 1 μM, rt 3 h; read-out: LMP7 subunit IC50.
Experiment [2] concerns the target constitutive proteasome β5c unit (Homo sapiens, UniProt P28074). As to the kind of experiment: Caliper-based proteasome enzymatic activity assay, β5c. The experiment is classed as biochemical. The conditions noted are these: human recombinant constitutive proteasome 0.3 nM, FAM-labeled peptide substrate 1 μM, rt 3 h; read-out: β5c subunit IC50.

With `C=CC(=O)N1CCCC(C)(OC(=O)N[C@@H](Cc2ccc(F)cc2)B(O)O)C1` (mixture of isomers) [Example 91, ((1R)-1-((((1-acryloyl-3-methylpiperidin-3-yl)oxy)carbonyl)amino)-2-(4-fluorophenyl)ethyl)boronic acid], the concentration for half-maximal inhibition (IC50) in experiment [1] and in experiment [2] was above 5000 nM each time.

On to `CC1(OC(=O)N[C@@H](Cc2ccc(F)cc2)B(O)O)CCCN(C(=O)C(C#N)=CC(C)(C)N2CCC(F)(F)C2)C1` (mixture of isomers) [Example 94, ((1R)-1-((((1-(2-cyano-4-(3,3-difluoropyrrolidin-1-yl)-4-methylpent-2-enoyl)-3-methylpiperidin-3-yl)oxy)carbonyl)amino)-2-(4-fluorophenyl)ethyl)boronic acid], for which the values for the IC50 in experiment [1] and in experiment [2] were 238 nM and above 5000 nM, respectively.

Take `C=CC(=O)N1CCCC(C)(OC(=O)N[C@@H](Cc2ccccc2)B(O)O)C1` (single isomer, unassigned) [Example 85]: the IC50 in experiment [1] and in experiment [2] was above 5000 nM throughout.

With `CC(C)(C=C(C#N)C(=O)N1CCC[C@](C)(OC(=O)N[C@@H](Cc2ccccc2)B(O)O)C1)N1CCC(F)(F)C1` (single isomer, unassigned) [Example 92], the 50% inhibitory concentration (IC50) is 42.2 nM in experiment [1] and above 5000 nM in experiment [2].

With `CC(C)(C=C(C#N)C(=O)N1CCC[C@@](C)(OC(=O)N[C@@H](Cc2ccccc2)B(O)O)C1)N1CCC(F)(F)C1` (single isomer, unassigned) [Example 93], the concentration for half-maximal inhibition (IC50) in experiment [1] is 646 nM; in experiment [2], above 5000 nM.

In the case of `CC(C)(C=C(C#N)C(=O)N1CCCC[C@@H](OC(=O)N[C@@H](Cc2ccccc2)B(O)O)C1)N1CCOCC1` (single isomer, unassigned) [Example 103], the IC50 in experiment [1] came out at 2.2 nM; in experiment [2] it was 3180 nM.

For the molecule `CC(C)(C=C(C#N)C(=O)N1CCCC[C@H](OC(=O)N[C@@H](Cc2ccccc2)B(O)O)C1)N1CCOCC1` (single isomer, unassigned) [Example 104], the concentration for half-maximal inhibition (IC50) in experiment [1] was 2.4 nM; in experiment [2], above 5000 nM.

`CC(C)(C=C(C#N)C(=O)N1CCCC[C@@H](OC(=O)N[C@@H](Cc2ccccc2)B(O)O)C1)N1CCC(F)(F)C1` (single isomer, unassigned) [Example 105]: the IC50 in experiment [1] amounted to 1.6 nM; in experiment [2] it was 1340 nM.

As for `CC(C)C=C(C#N)C(=O)NCCCC[C@H](NC(=O)[C@H](C)NC(=O)C(C)C)C(=O)N[C@@H](CC(C)C)B(O)O` [Example 1, ((R)-1-((S)-6-(2-cyano-4-methylpent-2-enamido)-2-((S)-2-isobutyramidopropanamido)hexanamido)-3-methylbutyl)boronic acid], the IC50 in experiment [1] came to 20.9 nM; in experiment [2], 12.1 nM.

With `CC(C)C=C(C#N)C(=O)NCCCC[C@H](NC(=O)c1cc(Cl)ccc1Cl)C(=O)N[C@@H](CC(C)C)B(O)O` [Example 3, ((R)-1-((S)-6-(2-cyano-4-methylpent-2-enamido)-2-(2,5-dichlorobenzamido)hexanamido)-3-methylbutyl)boronic acid], the figures for the IC50 in experiment [1] and in experiment [2] were 29.6 nM and 8.5 nM, respectively.

In the case of `CC(C)C=C(C#N)C(=O)NCCCC[C@H](NC(=O)[C@H](C)NC(=O)C(C)C)C(=O)N[C@@H](Cc1ccccc1)B(O)O` [Example 4, ((R)-1-((S)-6-(2-cyano-4-methylpent-2-enamido)-2-((S)-2-isobutyramidopropanamido)hexanamido)-2-phenylethyl)boronic acid], the IC50 is 14 nM in experiment [1] and 23.7 nM in experiment [2].

Consider `CC(C)C=C(C#N)C(=O)NCCCC[C@H](NC(=O)c1cccc(O)n1)C(=O)N[C@@H](CC(C)C)B(O)O` [Example 7, ((R)-1-((S)-6-(2-cyano-4-methylpent-2-enamido)-2-(6-hydroxypicolinamido)hexanamido)-3-methylbutyl)boronic acid], for which the IC50 in experiment [1] was determined as 1.3 nM; in experiment [2], 1 nM.

As to `CC(C)C=C(C#N)C(=O)NCCCC[C@H](NC(=O)[C@@H](NC(=O)C(C)C)[C@@H](C)O)C(=O)N[C@@H](CC(C)C)B(O)O` [Example 9, ((R)-1-((S)-6-(2-cyano-4-methylpent-2-enamido)-2-((2S,3R)-3-hydroxy-2-isobutyramidobutanamido)hexanamido)-3-methylbutyl)boronic acid], the figures for the IC50 in experiment [1] and in experiment [2] were 8.2 nM and 9.4 nM, respectively.

In the case of `CC(C)C=C(C#N)C(=O)NCCCC[C@H](NC(=O)[C@@H](NC(=O)C(C)C)[C@@H](C)O)C(=O)N[C@@H](Cc1ccccc1)B(O)O` [Example 10, ((R)-1-((S)-6-(2-cyano-4-methylpent-2-enamido)-2-((2S,3R)-3-hydroxy-2-isobutyramidobutanamido)hexanamido)-2-phenylethyl)boronic acid], the IC50 in experiment [1] came out at 6.6 nM; in experiment [2] it was 14.8 nM.

As for `CC(C)C=C(C#N)C(=O)NCCCC[C@H](NS(C)(=O)=O)C(=O)N[C@@H](Cc1ccccc1)B(O)O` [Example 12, ((R)-1-((S)-6-(2-cyano-4-methylpent-2-enamido)-2-(methylsulfonamido)hexanamido)-2-phenylethyl)boronic acid], the half-maximal inhibitory concentration (IC50) in experiment [1] came to 13.4 nM; in experiment [2], 21.1 nM.

`C=CS(=O)(=O)N(C)c1cccc(C[C@H](NC(=O)c2cc(Cl)ccc2Cl)C(=O)N[C@@H](Cc2ccccc2)B(O)O)c1` [Example 16, ((R)-1-((S)-2-(2,5-dichlorobenzamido)-3-(3-(N-methylvinylsulfonamido)phenyl)propanamido)-2-phenylethyl)boronic acid]: the half-maximal inhibitory concentration (IC50) in experiment [1] was 4.3 nM; in experiment [2], 3.3 nM.

Consider `Cc1ccncc1C(=O)N[C@@H](CCCCNC(=O)C(C#N)=CC(C)C)C(=O)N[C@@H](Cc1ccccc1)B(O)O` [Example 17, ((R)-1-((S)-6-(2-cyano-4-methylpent-2-enamido)-2-(4-methylnicotinamido)hexanamido)-2-phenylethyl)boronic acid], for which the IC50 in experiment [1] was 6.4 nM; in experiment [2] it was 10.9 nM.

With `CC#CC(=O)N(C)c1cccc(C[C@H](NC(=O)c2cc(Cl)ccc2Cl)C(=O)N[C@@H](Cc2ccccc2)B(O)O)c1` [Example 18, ((R)-1-((S)-2-(2,5-dichlorobenzamido)-3-(3-(N-methylbut-2-ynamido)phenyl)propanamido)-2-phenylethyl)boronic acid], the IC50 in experiment [1] amounted to 7.3 nM; in experiment [2] it was 10 nM.

For the molecule `CC(C)C=C(C#N)C(=O)N1CCC[C@@H]1COC[C@H](NC(=O)c1cc(Cl)ccc1Cl)C(=O)N[C@@H](Cc1ccccc1)[B-]12OC(=O)C[N+]1(C)CC(=O)O2` (stereo partly drawn) [Example 19, 8-((R)-1-((S)-3-(((R)-1-(2-cyano-4-methylpent-2-enoyl)pyrrolidin-2-yl)methoxy)-2-(2,5-dichlorobenzamido)propanamido)-2-phenylethyl)-4-methyl-2,6-dioxohexahydro-[1,3,2]oxazaborolo[2,3-b][1,3,2]oxazaborol-4-ium-8-uide], the IC50 worked out at 9.6 nM in experiment [1] and 15.6 nM in experiment [2].

As to `CC(C)C=C(C#N)C(=O)N1CCC[C@@H]1COC[C@H](NCC(F)(F)F)C(=O)N[C@@H](Cc1ccccc1)B(O)O` [Example 23, (R)-1-((S)-3-(((R)-1-(2-cyano-4-methylpent-2-enoyl)pyrrolidin-2-yl)methoxy)-2-(2,2,2-trifluoroethylamino)propanamido)-2-phenylethylboronic acid], the IC50 in experiment [1] was found to be 35 nM; in experiment [2], 450 nM.
